The record followed here is paper PMC10791743, “Selective CK1α degraders exert antiproliferative activity against a broad range of human cancer cell lines” (Nature Communications, 2024).

What all share (assay type): in vitro ADME
The nature of series [1]: Metabolic stability in cryopreserved hepatocytes, mouse. Particulars: 1 μM; for Remaining: Pooled Mouse Hepatocytes. How it is done: (§1) page 34: UHPLC-MS/MS System: Chromatographic separation was performed on an Acquity UPLC BEH […] with 6500+ Qtrap system. […] software suite. The UPLC column was maintained at 55 °C. Mobile phase A was 0.1% formic acid in MilliQ H2O and Mobile phase B was 0.1% formic acid in acetonitrile. The flow rate was 0.9 […] The mass spectrometer was operated in positive-ion mode with electrospray ionization. MRM transition m/z […] plasma stability and plasma protein binding. The following MS parameters were employed for analyte measurements: ion spray voltage 5 kV, temperature 550 °C, gas 1 and gas 2 were 60, entrance potential (EP): 10 V, declustering potential (DP): 50 V, collision energy (CE): 27 V, and collision cell exit potential (CXP): 16 V. Metabolic Stability in mouse and human cryopreserved hepatocytes. 10 mM test compounds were provided by Compound Sample Group. Diluted 10 mM test compounds and 30 mM positive control compounds (7-ethoxycoumarin) to 1 mM and 3 mM with DMSO in 96-well plates. Diluted 1 mM test compounds and 3 mM positive control compounds to 100 μM and 300 μM dosing solutions with ACN. Cryopreserved cells were thawed, isolated and suspended in Incubation Medium, then diluted with pre-warmed Incubation Medium to 0.5 × 10^6cells/mL. Added 198 μL of pre-warmed cell suspensions in 96 -well plates. Transferred 125 μL of stop solution (acetonitrile containing 200 ng/mL tolbutamide and 200 ng/mL labetalol as internal standards) in a set of pre- labeled 96-well plates. Spike d 2 μL dosing solution to each well of 96 -well plates in duplicates. For T0 Samples, mix ed to achieve a homogenous suspension for about 1 min, then immediately transferred 25 μL of each sample into well containing 125 μL of ice -cold stop solution followed by mixing. Incubated all plates at 37°C in a 95% humidified incubator at 5% CO 2 to start the reactions page 35: with constant shaking at about 600 rpm. At 15, 30, 60 and 90 min, mixed samples and then transferred 25 μL of each sample at each time point to well containing 125 μL of ice -cold stop solution followed by mixing. Medium Control (MC) sample plates (labeled as T0-MC and T90- MC) were prepared at T0 and T90 by adding the same components to each well except cell suspensions. At each corresponding time point, stopped the reactions by removing the plates from incubator and mixing with 125 μL of ice-cold stop solution. Vortexed the plates immediately on a plate shaker at 500 rpm for 10 minutes. Then, centrifuge d all sample plates at 3220 x g for 20 min at 4°C. After centrifugation, 80 μL/well of supernatant in the sample plates were transferred to another set of pre-labeled 96-well plates which containing 240 μL of ultra pure water according to the plate map. Analytical plates were sealed and stored at 4°C until LC-MS/MS analysis. Thawing Medium: Williams' Medium E containing 5% fetal bovine serum and 30% Perc oll solution and other supplements. Incubation Medium: Williams' Medium E (no phenol red) containing 2 mM L-Glutamine and 25 mM HEPES. Stop Solution: Acetonitrile containing 200 ng/mL tolbutamide and labetalol as internal standards. Dilution Solution: Ultra-pure water. The remaining percents of test articles after incubation were calculated by the follow equations: Equation ( 6): Use equation of first order kinetics [NT] […] The data was […] concatenated with a reversed decoy database for evaluating False Discovery Rate (FDR). […]

A short description of series [2]: Metabolic stability in cryopreserved hepatocytes, human. Particulars: Pooled Human Hepatocytes, 1 μM. As for the experimental part: as §1
Series [3] in a line: Medium control without cells (hepatocyte stability assay). Particulars: 90 min, 1 μM.

For the molecule `O=C1CCC(N2Cc3cc(Nc4noc5ccccc45)ccc3C2=O)C(=O)N1` (stereo not shown) [SJ001043149-3], in series [1] (Pooled Mouse Hepatocytes (first result line, species inferred from Ln(Remaining))), the k is 0.0013 min⁻¹. For the same molecule, the Remaining is reported as 83.3% in series [1] (15 min); 86.1% in series [1] (30 min); 89.6% in series [1] (60 min); 81.4% in series [1] (90 min); 110.2% in series [2] (15 min); 88.9% in series [2] (30 min). Also, the results for the Remaining in series [2] (60 min), in series [2] (90 min) and in series [3] were 93.8%, 108.9% and 94.5%, respectively.
